Data: US7709637B2, “5-phenylpyrimidines, their preparation, intermediates for their preparation, and their use for controlling harmful fungi” (BASF SE, priority 2001, dated 2010)

Test: not given
Conditions: not given

melting point | Structure (SMILES)
176 to 177 °C | C[C@H](Nc1nc(-n2cncn2)nc(Cl)c1-c1c(F)cc(F)cc1F)C(F)(F)F [I-4, (S)-6-Chloro-4-(2,2,2-trifluoro-1-methylethyl)amino-5-(2,4,6-trifluorophenyl)-2-(1,2,4-triazol-1-yl)pyrimidine]
172 to 173 °C | C[C@H](Nc1nc(-n2ccnc2)nc(Cl)c1-c1c(F)cc(F)cc1F)C(F)(F)F [I-3, (S)-6-Chloro-4-(2,2,2-trifluoro-1-methylethyl)amino-5-(2,4,6-trifluorophenyl)-2-(1-imidazolyl)pyrimidine]
209 °C | C[C@H](Nc1nc(-n2cccn2)nc(Cl)c1-c1c(F)cc(F)cc1F)C(F)(F)F [I-2, (S)-6-Chloro-4-(2,2,2-trifluoro-1-methylethyl)amino-5-(2,4,6-trifluorophenyl)-2-(1-pyrazolyl)pyrimidine]

Test: Lipophilicity parameter logPow by RP-HPLC run time method (OECD guideline)
Type: physicochemical
Conditions: C18 stationary phase, methanol/buffer pH 7.4, isocratic
Procedure: The lipophilicity parameters logPow (Table I) were determined as specified by OECD directive test guidelines using the RP-HPLC run time method.
To this end, a logk′/logPow correlation curve based on ten reference substances was plotted and validated with the aid of the lipophilicity parameters of eight comparative substances, which had been established by the extraction method.
A commercially available reversed-phase C18 stationary phase was used as stationary phase. Chromatographic separation was carried out with methanol and a buffer solution as mobile phase at pH 7.4 under isocratic conditions.
The retention times of the standards tR were converted in accordance with equation Φ into the capacity factors k′, where t0, as […] of the solvent unretarded on the reversed-phase C18 stationary phase, represents the dead time of the chromatographic system:
The linear correlation of the logk′ values with the logPow values of the standards published in the appendix to the Directive 92/69/EEC yields the correlation curve through linear regression.
The lipophilicity parameters logPow of the analytes were interpolated from the correlation curve of the standards after calculation of the logarithmic capacity logk′.
The validation of the RP-HPLC analytical method described, and of the standards used, is carried out with the aid of eight comparison active compounds, the distribution behavior of which was determined with the aid of the extraction method.

logPow | Structure (SMILES)
logPow 4.72 | CC(C)(C)CNc1nc(-c2cnccn2)nc(Cl)c1-c1c(F)cc(F)cc1F [I-22]
logPow 3.86 | CCN(CC)c1nc(-c2ncccn2)nc(Cl)c1-c1c(F)cccc1Cl [I-9]
logPow 4.7 | CC(C)Nc1nc(-c2cnccn2)nc(Cl)c1-c1c(F)cc(F)cc1F [I-18]
logPow 4.41 | CCN(CC)c1nc(-c2cnccn2)nc(Cl)c1-c1c(F)cc(F)cc1F [I-20]
logPow 4.48 | CC(C)N(C)c1nc(-c2cnccn2)nc(Cl)c1-c1c(F)cc(F)cc1F [I-21]
logPow 4.49 | CCN(CC)c1nc(-c2cnccn2)nc(Cl)c1-c1c(F)cccc1Cl [I-14]
logPow 3.15 | CC(C)Nc1nc(-c2ncccn2)nc(Cl)c1-c1c(F)cc(F)cc1F [I-11]
